The text below walks through data of patent US12448394B2, “Heterocyclic pyrazole derivatives as type III receptor tyrosine kinase inhibitors” (DEVELOPMENT CENTER FOR BIOTECHNOLOGY, priority 2019, dated 2025).

One assay concerns the target T1, FLT3 kinase (Homo sapiens, UniProt P36888).
T1 construct: purchased SignalChem
T1 sequence (P36888 27-993): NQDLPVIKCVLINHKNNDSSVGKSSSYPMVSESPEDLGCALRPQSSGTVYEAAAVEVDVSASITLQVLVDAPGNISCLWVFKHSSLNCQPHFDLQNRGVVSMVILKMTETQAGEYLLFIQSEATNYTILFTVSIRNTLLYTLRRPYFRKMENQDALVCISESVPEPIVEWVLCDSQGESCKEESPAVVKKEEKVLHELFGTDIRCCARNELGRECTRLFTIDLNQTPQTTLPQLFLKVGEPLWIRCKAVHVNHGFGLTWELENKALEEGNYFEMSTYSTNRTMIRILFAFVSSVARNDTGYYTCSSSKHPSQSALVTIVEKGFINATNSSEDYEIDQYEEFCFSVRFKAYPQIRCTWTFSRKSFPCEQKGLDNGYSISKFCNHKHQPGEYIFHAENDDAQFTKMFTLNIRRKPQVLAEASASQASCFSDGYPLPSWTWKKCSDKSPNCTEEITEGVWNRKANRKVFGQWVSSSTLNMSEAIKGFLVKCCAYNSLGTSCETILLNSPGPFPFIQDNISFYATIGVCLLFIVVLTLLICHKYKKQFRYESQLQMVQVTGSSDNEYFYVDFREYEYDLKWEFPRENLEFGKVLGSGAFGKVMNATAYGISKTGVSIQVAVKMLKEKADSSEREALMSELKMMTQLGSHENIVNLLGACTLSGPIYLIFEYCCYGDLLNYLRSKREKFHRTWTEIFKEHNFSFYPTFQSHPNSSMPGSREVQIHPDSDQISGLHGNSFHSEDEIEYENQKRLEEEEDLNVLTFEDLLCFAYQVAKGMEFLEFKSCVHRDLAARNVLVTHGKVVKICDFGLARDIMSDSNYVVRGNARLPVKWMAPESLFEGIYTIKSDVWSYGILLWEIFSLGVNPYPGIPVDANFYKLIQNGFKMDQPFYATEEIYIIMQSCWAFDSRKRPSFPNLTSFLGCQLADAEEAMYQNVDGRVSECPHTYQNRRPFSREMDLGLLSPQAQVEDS
Put plainly: FLT3 kinase assay (AlphaScreen). The assay is classed as biochemical. To be noted: read-out: Ranking of IC50 values, FLT3. The procedure, abridged: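 Recombinant FLT3 (1.5 ng) phosphorylated biotinylated poly(Glu4:Tyr1) with 10 μM ATP in MOPS pH 7.0 buffer containing 10 mM MgCl2, 30 min at 30 °C, stopped with EDTA. Product detected by AlphaScreen; IC50 from duplicate serial dilutions.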

Assay [1] deals with MV4-11 human acute myeloid leukemia cell with FLT3-ITD mutation. The assay is described as follows: MV4-11 cell proliferation assay (CellTiter 96). The assay is classed as cell-based. Conditions: Homo sapiens, MV4-11, 72 h, MV4-11 cells, 72 hours treatment, CellTiter96; read-out: anti-proliferation activity MV4-11 (FLT3-ITD), IC50 ranking. How it is done: (§1) Inhibitions of cell growths by compounds were measured using CellTiter™-96 assay. The cytotoxicities of compounds of the invention were evaluated in cell line panels with different signaling pathway dependencies, including MV4-11 human acute myeloid leukemia cell with FLT3-ITD mutation, Molm-14 human acute myeloid leukemia cell with FLT3-ITD mutation, THP-1 human acute monocytic leukemia cell with NRAS G12D mutation, A375 melanoma cell with BRAF V600E mutation, and HCC827 NSCLC cell with EGFR exon 19 deletion mutation.
The compounds disclosed herein were tested in MV4-11 cell proliferation assay to determine their cellular potencies against FLT3 signal pathway dependent cell growths. MV4-11 cells are human acute myeloid leukemia (AML) cells harboring ligand-independent FLT3-ITD activating mutation, which renders the abnormal proliferation of AML cells FLT3 signaling pathway dependent. Inhibition of FLT3 kinase activity will result in reduced growths and/or cell deaths. MV4-11 cells (catalog #CRL-9591) were obtained from the American Type Culture Collection (ATCC, Manassas, VA). Briefly, cells were grown in IMDM medium supplemented with 10% heat inactivated fetal bovine serum and incubated at 37° C. in 5% CO2 atmosphere. Cells were allowed to expand until reaching saturation, at which point they were sub-cultured or harvested for assay use.
(§2) MV4-11, Molm-14, THP-1, A375, and HCC827 cells were seeded into 96-well plates at 6500, 25000, 5000, 2000 and 8000 cells/well, respectively, and incubated at 37° C., 5% CO2 overnight. Then, these seeded cells were treated with increasing concentrations of the test compounds and incubated for another 72 hours. At the end of the incubation, CellTiter96® AQueous One Solution Reagent (Promega, […]) was added and incubated for the additional 2˜4 hours. Cell viability was determined by measuring absorbance at 490 nm using EMax® microplate reader (Molecular Devices, San Jose, CA, USA).

Assay [2] concerns THP-1 human acute monocytic leukemia cell with NRAS G12D mutation. The assay is described as follows: THP-1 cell proliferation assay (counter screen). The assay is classed as cell-based. To be noted: Homo sapiens, THP-1 cells, 72 hours treatment, CellTiter96, read-out: anti-proliferation activity THP-1 NRAS N12D, IC50 ranking. How it is done: as §1
THP-1 cells are human acute monocytic leukemia cells with NRAS G12D mutation, which renders the cell growth independent of class III RTKs signaling. THP-1 cells (catalog #TIB-202) were obtained from the ATCC. Briefly, cells were grown in RPMI 1640 medium supplemented with 10% heat inactivated fetal bovine serum and 0.05 mM 2-mercaptoethanol and incubated at 37° C. in 5% CO2 atmosphere. Cells were allowed to expand until reaching saturation, at which point they were sub-cultured or harvested for assay use.
as §2

The test system of assay [3] is Molm-14 human acute myeloid leukemia cell with FLT3-ITD mutation. The assay is described as follows: Molm-14 cell proliferation assay (CellTiter 96). Conditions: Homo sapiens; Molm-14 cells, 72 hours treatment, CellTiter96; read-out: anti-proliferation activity Molm-14 (FLT3-ITD), IC50 ranking. It counts as cell-based. How it is done: as §1
The compounds disclosed herein were tested in Molm-14 cell proliferation assay to determine their cellular potencies against FLT3 signal pathway dependent cell growths. Molm-14 cells are human acute myeloid leukemia (AML) cells harboring ligand-independent FLT3-ITD activating mutation, which renders the abnormal proliferation of the AML cells FLT3 signaling pathway dependent. Inhibition of FLT3 kinase activity will result in reduced growths and/or cell deaths. […] Briefly, cells were grown in RPMI 1640 medium supplemented with 10% heat inactivated fetal bovine serum and incubated at 37° C. in 5% CO2 atmosphere. Cells were allowed to expand until reaching saturation, at which point they were sub-cultured or harvested for assay use.
as §2

Regarding `Cn1ncc2ccc(-c3n[nH]c4c3Cc3sc(-c5ccc(CC6CCOCC6)cc5)cc3-4)cc21` [Compound 77, 3-(1-methyl-1H-indazol-6-yl)-6-(4-((tetrahydro-2H-pyran-4-yl)methyl)phenyl)-1,4-dihydrothieno [2′,3′:4,5]cyclopenta [1,2-c]pyrazole], the IC50 on FLT3 kinase was in the range of 1 to 10 nM; in assay [1], 100 to 300 nM; in assay [2] it was 1000 to 10000 nM; in assay [3], 100 to 300 nM.
Regarding `Cn1ncc2ccc(-c3n[nH]c4c3Cc3sc(C#CCN5CCOCC5)cc3-4)cc21` [Compound 71, 4-(3-(3-(1-methyl-1H-indazol-6-yl)-1,4-dihydro-thieno[2′,3′:4,5]cyclopenta [1,2-c]pyrazol-6-yl)prop-2-yn-1-yl)morpholine], the IC50 is 1 to 10 nM at FLT3 kinase, < 30 nM in assay [1], 1000 to 10000 nM in assay [2] and 30 to 100 nM in assay [3].
The like results for `Cn1ncc2ccc(-c3n[nH]c4c3Cc3sc(-c5ccc(NC6CCOCC6)cc5)cc3-4)cc21` [Compound 72, N-(4-(3-(1-methyl-1H-indazol-6-yl)-1,4-dihydro-thieno[2′,3′:4,5]cyclopenta [1,2-c]pyrazol-6-yl)phenyl)tetrahydro-2H-pyran-4-amine] were, in that order, 1 to 10 nM, 30 to 100 nM, > 10000 nM and 100 to 300 nM.
The corresponding values for `CN(C)C(=O)c1ccc(-c2cc3c(s2)Cc2c(-c4ccc5cnn(C)c5c4)n[nH]c2-3)cc1` [Compound 49, N,N-dimethyl-4-(3-(1-methyl-1H-indazol-6-yl)-1,4-dihydrothieno [2′,3′:4,5]cyclopenta [1,2-c]pyrazol-6-yl) benzamide] are < 1 nM, < 30 nM, > 10000 nM and < 30 nM.
The like results for `C[C@H]1COCCN1Cc1ccc(-c2cc3c(s2)Cc2c(-c4ccc5cnn(C)c5c4)n[nH]c2-3)cc1` [Compound 75, (S)-3-methyl-4-(4-(3-(1-methyl-1H-indazol-6-yl)-1,4-dihydrothieno [2′,3′:4,5]cyclopenta [1,2-c]pyrazol-6-yl)benzyl)morpholine] were, in that order, < 1 nM, < 30 nM, > 10000 nM and 30 to 100 nM.
In the case of `Cn1ncc2ccc(-c3n[nH]c4c3Cc3sc(-c5cc(F)c(CN6CCOCC6)c(F)c5)cc3-4)cc21` [Compound 53, 4-(2,6-difluoro-4-(3-(1-methyl-1H-indazol-6-yl)-1,4-dihydrothieno [2′,3′:4,5]cyclopenta [1,2-c]pyrazol-6-yl)benzyl)morpholine], the IC50 at FLT3 kinase was < 1 nM; in assay [1] it was 30 to 100 nM; in assay [2], > 10000 nM; in assay [3], 100 to 300 nM.
The corresponding values for `C[C@@H]1CN(Cc2ccc(-c3cc4c(s3)Cc3c(-c5ccc6cn[nH]c6c5)n[nH]c3-4)cc2)C[C@H](C)O1` [Compound 7, (2S,6R)-4-(4-(3-(1H-indazol-6-yl)-1,4-dihydrothieno[2′,3′:4,5]cyclopenta [1,2-c]pyrazol-6-yl)benzyl)-2,6-dimethylmorpholine] are 1 to 10 nM, < 30 nM, > 10000 nM and < 30 nM.
The like results for `Cn1ncc2ccc(-c3n[nH]c4c3Cc3sc(-c5ccc(CN6CCOCC6)c(C(F)(F)F)c5)cc3-4)cc21` [Compound 27, 4-(4-(3-(1-methyl-1H-indazol-6-yl)-1,4-dihydrothieno[2′,3′:4,5]cyclopenta[1,2-c]pyrazol-6-yl)-2-(trifluoromethyl)benzyl)morpholine] were, in that order, 1 to 10 nM, 300 to 1000 nM, > 10000 nM and 1000 to 10000 nM.
The corresponding values for `C[C@@H]1CN(Cc2cccc(-c3cc4c(s3)Cc3c(-c5ccc6cnn(C)c6c5)n[nH]c3-4)c2)C[C@H](C)O1` [Compound 12, (2S,6R)-2,6-dimethyl-4-(3-(3-(1-methyl-1H-indazol-6-yl)-1,4-dihydrothieno [2′,3′:4,5]cyclopenta[1,2-c]pyrazol-6-yl)benzyl) morpholine] are 1 to 10 nM, 30 to 100 nM, > 10000 nM and 100 to 300 nM.
For `CN(C)c1ccc(-c2cc3c(s2)Cc2c(-c4ccc5cnn(C)c5c4)n[nH]c2-3)cn1` [Compound 5, N,N-dimethyl-5-(3-(1-methyl-1H-indazol-6-yl)-1,4-dihydrothieno [2′,3′:4,5]cyclopenta[1,2-c]pyrazol-6-yl)pyridin-2-amine], the IC50 is 1 to 10 nM on FLT3 kinase, 30 to 100 nM in assay [1], > 10000 nM in assay [2] and 100 to 300 nM in assay [3].
The like results for `Cn1cc(-c2cc3c(s2)Cc2c(-c4ccc5cnn(C)c5c4)n[nH]c2-3)cc1C(=O)N1CCOCC1` [Compound 46, (1-methyl-4-(3-(1-methyl-1H-indazol-6-yl)-1,4-dihydrothieno[2′,3′:4,5]cyclopenta[1,2-c]pyrazol-6-yl)-1H-pyrrol-2-yl) (morpholino)methanone] were, in that order, < 1 nM, < 30 nM, > 10000 nM and < 30 nM.
The corresponding values for `Cn1ncc2ccc(-c3n[nH]c4c3Cc3sc(-c5cccc(OCCN6CCOCC6)c5)cc3-4)cc21` [Compound 70, 4-(2-(3-(3-(1-methyl-1H-indazol-6-yl)-1,4-dihydro-thieno[2′,3′:4,5]cyclopenta [1,2-c]pyrazol-6-yl)phenoxy)ethyl)morpholine] are 1 to 10 nM, 30 to 100 nM, > 10000 nM and 100 to 300 nM.
Turning to `Cn1ncc2ccc(-c3n[nH]c4c3Cc3sc(C5CCN(C(=O)OC(C)(C)C)CC5)cc3-4)cc21` [Compound 58, tert-butyl-4-(3-(1-methyl-1H-indazol-6-yl)-1,4-dihydrothieno[2′,3′:4,5]cyclopenta[1,2-c]pyrazol-6-yl)piperidine-1-carboxylate], the IC50 is 1 to 10 nM at FLT3 kinase, 30 to 100 nM in assay [1], > 10000 nM in assay [2] and 100 to 300 nM in assay [3].
